From patent US5498632A, “Esters of acyl carnitines with long-chain aliphatic alcohols and pharmaceutical compositions containing same having antibacterial activity” (Sigma-Tau Industrie Farmaceutiche Riunite S.p.A., priority 1992, dated 1996)
Read-outs that look alike come from different tables or passages of the source.

Tests used:
Format in all cases: cell-based
[1] = test system: Salmonella typhimurium (D.S.); test: MIC in broth, Gram- strains; conditions: Salmonella enterica, 18 h, read-out: Minimal Inhibitory Concentration (MIC)
Protocol: (§1) MICs were determined by a standard microdilution test, using serial two-fold dilutions of the substances in Mueller-Hinton broth.
(§2) The inoculum was prepared from an overnight culture in Mueller-Hinton broth matching the 0.5 Mc Farland (turbidity) standard (BRAY W. E., Clinical Laboratory Methods, 5th Ed. C. V. MOSBY, St. Louis, Mo. 1957), and was adjusted to a final concentration of 5.0×10^4 colony-forming units/ml.
(§3) Equal volumes (0.1 ml) of both bacterial suspensions and substance solutions were distributed in microtiter plates (Falcon, 96 wells, round bottom), and then placed in a humidified incubator (37° C.) for 18 hours.
(§4) Evaluation of the Minimal Inhibitory Concentration (MIC) in broth of 16 new substances for Gram- bacterial strains.
(§5) The following strains were used: Enterobacter (1), Escherichia (3), Klebsiella (3), Proteus (3); Pseudomonas (2); Salmonella (2), Serratia (1).

[2] = test system: Escherichia coli (92 F); test: MIC in broth, Gram- strains; conditions: 18 h, E. coli (92 F), read-out: Minimal Inhibitory Concentration (MIC)
Protocol: as §1, §2, §3, §4, §5

[3] = test system: Enterobacter aerogenes (UM); test: MIC in broth, Gram- strains; conditions: Klebsiella aerogenes, 18 h, read-out: Minimal Inhibitory Concentration (MIC)
Protocol: as §1, §2, §3, §4, §5

[4] = test system: Proteus vulgaris (UM); test: MIC in broth, Gram- strains; conditions: 18 h, read-out: Minimal Inhibitory Concentration (MIC)
Protocol: as §1, §2, §3, §4, §5

[5] = test system: Pseudomonas aeruginosa (3 E); test: MIC in broth, Gram- strains; conditions: 18 h, read-out: Minimal Inhibitory Concentration (MIC)
Protocol: as §1, §2, §3, §4, §5

[6] = test system: Bacillus pumilus (CN 607); test: MIC in broth, Gram+ strains; conditions: B. pumilus (CN 607), Mueller-Hinton broth, 37° C., 18 hours, read-out: Minimal Inhibitory Concentration (MIC)
Protocol: (§6) Evaluation of the Minimal Inhibitory Concentration (MIC) in broth of 15 new substances for Gram+ bacterial strains.
(§7) The following strains were used: Staphylococcus aureus (4); Streptococcus faecalis (8); Bacillus pumilus (1); Bacillus subtilis (1).
as §1, §2, §3
(§8) The results, in terms of MIC values, resistant strain number and mean MIC values versus susceptible strains, are illustrated in Tables 1-6.

[7] = test system: Streptococcus faecalis (501); test: MIC in broth, Gram+ strains; conditions: Enterococcus faecalis; S. faecalis (501), Mueller-Hinton broth, 37° C., 18 hours; read-out: Minimal Inhibitory Concentration (MIC)
Protocol: as §6, §7, §1, §2, §3, §8

[8] = test system: Staphylococcus aureus (ATCC 14154); test: MIC in broth, Gram+ strains; conditions: ATCC14154, S. aureus (ATCC 14154), Mueller-Hinton broth, 37° C., 18 hours, read-out: Minimal Inhibitory Concentration (MIC)
Protocol: as §6, §7, §1, §2, §3, §8

[9] = test system: Streptococcus faecalis (R 2); test: MIC in broth, Gram+ strains; conditions: Enterococcus faecalis; S. faecalis (R 2), Mueller-Hinton broth, 37° C., 18 hours; read-out: Minimal Inhibitory Concentration (MIC)
Protocol: as §6, §7, §1, §2, §3, §8

[10] = test system: Staphylococcus aureus (LC1); test: MIC in broth, Gram+ strains; conditions: S. aureus (LC1), Mueller-Hinton broth, 37° C., 18 hours, read-out: Minimal Inhibitory Concentration (MIC)
Protocol: as §6, §7, §1, §2, §3, §8

[11] = test system: Streptococcus faecalis (505); test: MIC in broth, Gram+ strains; conditions: Enterococcus faecalis; S. faecalis (505), Mueller-Hinton broth, 37° C., 18 hours; read-out: Minimal Inhibitory Concentration (MIC)
Protocol: as §6, §7, §1, §2, §3, §8

[12] = test system: Streptococcus faecalis (UM); test: MIC in broth, Gram+ strains; conditions: Enterococcus faecalis; S. faecalis (UM), Mueller-Hinton broth, 37° C., 18 hours; read-out: Minimal Inhibitory Concentration (MIC)
Protocol: as §6, §7, §1, §2, §3, §8

[13] = test system: Staphylococcus aureus (303); test: MIC in broth, Gram+ strains; conditions: S. aureus (303), Mueller-Hinton broth, 37° C., 18 hours, read-out: Minimal Inhibitory Concentration (MIC)
Protocol: as §6, §7, §1, §2, §3, §8

[14] = test system: Streptococcus faecalis (509); test: MIC in broth, Gram+ strains; conditions: Enterococcus faecalis; S. faecalis (509), Mueller-Hinton broth, 37° C., 18 hours; read-out: Minimal Inhibitory Concentration (MIC)
Protocol: as §6, §7, §1, §2, §3, §8

[15] = test system: Staphylococcus aureus (306 MR); test: MIC in broth, Gram+ strains; conditions: S. aureus (306 MR), Mueller-Hinton broth, 37° C., 18 hours, read-out: Minimal Inhibitory Concentration (MIC)
Protocol: as §6, §7, §1, §2, §3, §8

[16] = test system: Bacillus subtilis (ATCC 6051); test: MIC in broth, Gram+ strains; conditions: ATCC6051, B. subtilis (ATCC 6051), Mueller-Hinton broth, 37° C., 18 hours, read-out: Minimal Inhibitory Concentration (MIC)
Protocol: as §6, §7, §1, §2, §3, §8

[17] = test system: Streptococcus faecalis (516); test: MIC in broth, Gram+ strains; conditions: Enterococcus faecalis; S. faecalis (516), Mueller-Hinton broth, 37° C., 18 hours; read-out: Minimal Inhibitory Concentration (MIC)
Protocol: as §6, §7, §1, §2, §3, §8

[18] = test system: Streptococcus faecalis (518); test: MIC in broth, Gram+ strains; conditions: Enterococcus faecalis; S. faecalis (518), Mueller-Hinton broth, 37° C., 18 hours; read-out: Minimal Inhibitory Concentration (MIC)
Protocol: as §6, §7, §1, §2, §3, §8

[19] = test system: Streptococcus faecalis (519); test: MIC in broth, Gram+ strains; conditions: Enterococcus faecalis; S. faecalis (519), Mueller-Hinton broth, 37° C., 18 hours; read-out: Minimal Inhibitory Concentration (MIC)
Protocol: as §6, §7, §1, §2, §3, §8

[20] = test system: Gram+ bacterial strains; test: Mean MIC in broth and resistant strain number, Gram+ strains; conditions: 18 h, versus susceptible strains
Protocol: as §6, §7, §1, §2, §3, §8

[21] = test system: Gram- bacterial strains; test: Mean MIC in broth and resistant strain number, Gram- strains; conditions: 18 h, read-out: Mean MIC values
Protocol: as §1, §2, §3, §4, §5

[22] = test system: Klebsiella oxytoca (552); test: MIC in broth, Gram- strains; conditions: 18 h, read-out: Minimal Inhibitory Concentration (MIC)
Protocol: as §1, §2, §3, §4, §5

| SMILES | MIC [1] | MIC [2] | MIC [3] | MIC [4] | MIC [5] | MIC [6] | MIC [7] | MIC [8] | MIC [9] | MIC [10] | MIC [11] | MIC [12] | MIC [13] | MIC [14] | MIC [15] | MIC [16] | MIC [17] | MIC [20] | MIC [22] | MIC [21] | other results |
| --- | --- | --- | --- | --- | --- | --- | --- | --- | --- | --- | --- | --- | --- | --- | --- | --- | --- | --- | --- | --- | --- |
| CCCCCCCCCCCCCOC(=O)CC(C[N+](C)(C)C)OC(=O)CC(C)C (stereo not drawn) [ST 1033] | > 100 µg/mL | > 100 µg/mL | 100 µg/mL | > 100 µg/mL | > 100 µg/mL | 1.56 µg/mL | 3.12 µg/mL | 3.12 µg/mL | 1.56 µg/mL | 1.56 µg/mL | 1.56 µg/mL | 1.56 µg/mL | 3.12 µg/mL | 1.56 µg/mL | 3.12 µg/mL | 3.12 µg/mL | 1.56 µg/mL | 2.11 µg/mL | – | – | MIC [18]: 1.56 µg/mL; MIC [19]: 1.56 µg/mL; MIC ([21]; Gram- strains, versus susceptible strains): 100 µg/mL |
| CCCCCCCCCCCCCOC(=O)CC(C[N+](C)(C)C)OC(=O)C(C)CCCC (stereo not drawn) [ST 1051] | – | > 100 µg/mL | > 100 µg/mL | > 100 µg/mL | > 100 µg/mL | 1.56 µg/mL | 6.25 µg/mL | – | – | – | – | – | 6.25 µg/mL | 6.25 µg/mL | 12.5 µg/mL | – | – | 6.56 µg/mL | > 100 µg/mL | > 100 µg/mL | – |
| CCCCCCCCCCCCCOC(=O)CC(C[N+](C)(C)C)OC(=O)CCCCCC (stereo not drawn) [ST 1050] | – | > 100 µg/mL | > 100 µg/mL | > 100 µg/mL | > 100 µg/mL | 1.56 µg/mL | 3.12 µg/mL | – | – | – | – | – | 6.25 µg/mL | 3.12 µg/mL | 6.25 µg/mL | – | – | 4.06 µg/mL | > 100 µg/mL | > 100 µg/mL | – |
| CCCCCCCCCCCCCOC(=O)CC(C[N+](C)(C)C)OC(=O)CCCCCCC (stereo not drawn) [ST 1053] | – | > 100 µg/mL | > 100 µg/mL | > 100 µg/mL | > 100 µg/mL | 1.56 µg/mL | 6.25 µg/mL | – | – | – | – | – | 6.25 µg/mL | 1.56 µg/mL | 6.25 µg/mL | – | – | 4.37 µg/mL | > 100 µg/mL | > 100 µg/mL | – |
| CCCCCCCCCCCCCCCCOC(=O)CC(C[N+](C)(C)C)OC(=O)CC(C)C (stereo not drawn) [ST 1001] | > 100 µg/mL | > 100 µg/mL | > 100 µg/mL | > 100 µg/mL | > 100 µg/mL | 6.25 µg/mL | 3.12 µg/mL | 6.25 µg/mL | 3.12 µg/mL | 12.5 µg/mL | 3.12 µg/mL | 3.12 µg/mL | 6.25 µg/mL | 3.12 µg/mL | 6.25 µg/mL | 12.5 µg/mL | 3.12 µg/mL | 5.35 µg/mL | – | > 100 µg/mL | MIC [18]: 3.12 µg/mL; MIC [19]: 3.12 µg/mL |
